# Measurements reported in PubChem BioAssay AID1963836 (Molecular Pharmacology Branch, DTP, NCI, 2024).
# Test system: 857933-349-R-J2-PDC complex spheroid viability
# Assay: Anticancer human tumor 857933-349-R-J2-PDC patient-derived colon adenocarcinoma cell line growth inhibition [POLQ]
# Settings: for IC50: curve of first compound; for viability, T/C: stronger effect = lower value
# Procedure: Multicellular complex tumor spheroid response to Polymerase (POL) inhibitors (novobiocin, ART-558, RP6685) in combination with a variety of drugs and investigational agents in selected tumor cell lines
# The POL inhibitors (novobiocin, ART-558, and RP6685) were evaluated both individually and in combination with standard of care and investigational anticancer small molecules within a complex spheroid model of solid tumors. . Complex spheroids include a stromal component modeled by human endothelial cells (HUVEC) and fibroblasts modeled by human mesenchymal stem cells (MSCs). The concentration ranges selected for each drug and investigational agent were based upon clinically achievable concentrations if the clinical Cmax of the agent was known.
# Compounds. The drugs and investigational agents: novobiocin (NSC847541), ART-558 (NSC835418), RP-6685 (NSC848927), peposertib (NSC802822), ceralasertib (NSC780249), elimusertib (NSC800525), camonsertib (NSC841442), AZD-1390 (NSC803789), olaparib (NSC753686), talazoparib (NSC767125), rucaparib (NSC756644), sotorasib (NSC818433), MRTX-1133 (NSC836407), SN-38 (NSC673596), topotecan (NSC609699), epotoside (NSC141540), doxorubicin (NSC123127), gemcitabine (NSC613327), 5-fluorouracil (NSC19893), paclitaxel (NSC125973), vemurafenib (NSC761431), MSA-2 (NSC828583), SN-011 (NSC837082), adavosertib (NSC754352), prexasertib (NSC758257), carboplatin (NSC241240) and oxaliplatin (NSC266046), were obtained from the National Cancer Institute (NCI) Developmental Therapeutics Program Chemical Repository (21). The FDA-approved anticancer drug set is available from the Developmental Therapeutics Program at https://dtp.cancer.gov/organization/dscb/obtaining/. […] The stock solutions were prepared in dimethyl sulfoxide (DMSO, Sigma-Aldrich, St. Louis, MO, cat. D2650), except for the platinum compounds which were prepared in saline (Quality Biological, Gaithersburg, MD, cat. 114-055-101), at 800-fold the tested concentration and stored at -70 degrees C prior to their use. All drugs and investigational agents were tested over a range starting from a high concentration at or near the clinical Cmax and decreasing in half-log increments. If the clinical Cmax for an agent had not been determined, the highest concentration tested was 10 microM, except for SN-38, which was tested at a high concentration of 1 microM.
# Cell Culture. All cells were maintained in an incubator at 37 degrees C and 5% CO2 with 95% humidity. The PDC lines were cultured according to standard operating procedures established by the NCI PDMR (https://pdmr.cancer.gov). Table 3 of the manuscript, lists the cell lines along with the number of the three cell types plated to form the mct-spheroids and media for tumor cell growth. After thawing, all PDC lines, except 997537-175-T-J1-PDC and 415267-285-R-J2-PDC, were cultured in Matrigel-coated flasks prepared with a working solution of 1X Ham's F-12 nutrient mix, without supplementation (Thermo Fisher Scientific, cat. 11765054), 100 U/mL penicillin-streptomycin (Thermo Fisher Scientific, cat. 15140122), and 2.5% Matrigel (Corning Inc., Corning, NY, cat. 354248) for the first three passages. The two PDC lines 997537-175-T-J1-PDC and 415267-285-R-J2-PDC were cultured on uncoated flasks. The 857933-349-R-J2-PDC line was cultured in 6C/Colon 1B media containing advanced DMEM/F-12 (Thermo Fisher Scientific, cat. 12634028), 10 mM HEPES (Thermo Fisher Scientific, cat. 15630080), 1X GlutaMAX supplement (Thermo Fisher Scientific, cat. 35050061), 0.1 mg/mL primocin (InvivoGen, San Diego, CA, cat. ant-pm-2), 10% defined fetal bovine serum, heat inactivated (HyClone Laboratories Inc., Logan, UT, cat. SH30070.03HI), 50% L-WRN conditioned media (ATCC, cat. CRL-3276), 1.25 mM N-Acetyl-L-cysteine (Sigma-Aldrich, cat. A9165), 10 mM nicotinamide (Sigma-Aldrich, cat. N0636), 1X B-27 supplement (Thermo Fisher Scientific, cat. 17504044), 1X N-2 supplement (Thermo Fisher Scientific, cat. […]
# 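Also: spheroids exposed to compounds for seven days before readout.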
structure (smiles),measurement,setting,value
CNCc1ccc(-c2[nH]c3cc(F)cc4c3c2CCNC4=O)cc1 + COC1C(OC(N)=O)C(O)C(Oc2ccc3c(O)c(NC(=O)c4ccc(O)c(CC=C(C)C)c4)c(=O)oc3c2C)OC1(C)C,IC50,second compound 0.0316 µM,> 10 µM
same,IC50,second compound 0.1 µM,> 10 µM
same,IC50,second compound 0.316 µM,> 10 µM
same,IC50,second compound 1 µM,> 10 µM
same,IC50,second compound 3.16 µM,> 10 µM
same,IC50,second compound 10 µM,> 10 µM
same,"viability, T/C","second compound 0.0316 µM, first compound 0.0316 µM",85.1%
same,"viability, T/C","second compound 0.0316 µM, first compound 0.1 µM",90%
same,"viability, T/C","second compound 0.0316 µM, first compound 0.316 µM",93.8%
same,"viability, T/C","second compound 0.0316 µM, first compound 1 µM",89.9%
same,"viability, T/C","second compound 0.0316 µM, first compound 3.16 µM",87.1%
same,"viability, T/C","second compound 0.0316 µM, first compound 10 µM",69.5%
same,"viability, T/C","second compound 0.1 µM, first compound 0.0316 µM",103%
same,"viability, T/C","second compound 0.1 µM, first compound 0.1 µM",87.7%
same,"viability, T/C","second compound 0.1 µM, first compound 0.316 µM",88.9%
same,"viability, T/C","second compound 0.1 µM, first compound 1 µM",117%
same,"viability, T/C","second compound 0.1 µM, first compound 3.16 µM",99.2%
same,"viability, T/C","second compound 0.1 µM, first compound 10 µM",106%
same,"viability, T/C","second compound 0.316 µM, first compound 0.0316 µM",88.5%
same,"viability, T/C","second compound 0.316 µM, first compound 0.1 µM",96.9%
same,"viability, T/C","second compound 0.316 µM, first compound 0.316 µM",102%
same,"viability, T/C","second compound 0.316 µM, first compound 1 µM",111%
same,"viability, T/C","second compound 0.316 µM, first compound 3.16 µM",103%
same,"viability, T/C","second compound 0.316 µM, first compound 10 µM",92.3%
same,"viability, T/C","second compound 1 µM, first compound 0.0316 µM",97.2%
same,"viability, T/C","second compound 1 µM, first compound 0.1 µM",97.2%
same,"viability, T/C","second compound 1 µM, first compound 0.316 µM",67.9%
same,"viability, T/C","second compound 1 µM, first compound 1 µM",83.5%
same,"viability, T/C","second compound 1 µM, first compound 3.16 µM",117%
same,"viability, T/C","second compound 1 µM, first compound 10 µM",103%
same,"viability, T/C","second compound 3.16 µM, first compound 0.0316 µM",82.5%
same,"viability, T/C","second compound 3.16 µM, first compound 0.1 µM",102%
same,"viability, T/C","second compound 3.16 µM, first compound 0.316 µM",90.3%
same,"viability, T/C","second compound 3.16 µM, first compound 1 µM",87.2%
same,"viability, T/C","second compound 3.16 µM, first compound 3.16 µM",104%
same,"viability, T/C","second compound 3.16 µM, first compound 10 µM",88.8%
same,"viability, T/C","second compound 10 µM, first compound 0.0316 µM",66.3%
same,"viability, T/C","second compound 10 µM, first compound 0.1 µM",92.3%
same,"viability, T/C","second compound 10 µM, first compound 0.316 µM",84.3%
same,"viability, T/C","second compound 10 µM, first compound 1 µM",74.9%
same,"viability, T/C","second compound 10 µM, first compound 3.16 µM",95.3%
same,"viability, T/C","second compound 10 µM, first compound 10 µM",90.5%
